In brackets after ≈: the same amount, converted by molar mass.
Assays:
Assay in all cases: in vitro antibacterial evaluation, MIC by broth dilution
Format in all cases: cell-based
[1] = tested on: Enterococcus sp.; conditions: broth dilution, 18 hours at 35° C.; for MIC Enterococcus faecalis (ATCC 29212): strain ATCC 29212; for MIC Enterococcus faecalis (GC 2242): strain GC 2242; for MIC Enterococcus faecium (GC 2243): strain GC 2243; for MIC Enterococcus faecalis (GC 2691): strain GC 2691; for MIC Enterococcus faecalis (GC 3059): strain GC 3059; for MIC Enterococcus faecalis (GC 4552): strain GC 4552; for MIC Enterococcus faecalis (GC 4553): strain GC 4553; for MIC Enterococcus faecalis (GC 4554): strain GC 4554; for MIC Enterococcus faecium (GC 4556): strain GC 4556; for MIC Enterococcus faecium (GC 4557): strain GC 4557; for MIC Enterococcus avium (GC 4558): strain GC 4558; for MIC Enterococcus faecalis (GC 6189): strain GC 6189
Procedure, shortened: (§1)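 Test organisms, which included recent clinical isolates resistant to methicillin, penicillin and/or vancomycin, were inoculated at 5×10^5 CFU/mL into Muller-Hinton II […] containing antibiotic at 64-0.06 μg/mL. Minimum inhibitory concentrations were then read as the lowest level inhibiting growth.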

[2] = tested on: Escherichia coli
Procedure, shortened: as §1

[3] = tested on: Staphylococcus sp.; conditions: broth dilution, 18 hours at 35° C.; for MIC Staphylococcus aureus (GC 1131): strain GC 1131
Procedure, shortened: as §1

[4] = tested on: Streptococcus sp.; conditions: broth dilution, 18 hours at 35° C.; for MIC Streptococcus pneumoniae (ATCC 6301): strain ATCC 6301; for MIC Streptococcus pneumoniae (GC 1894): strain GC 1894; for MIC Streptococcus pyogenes (GC 4563): strain GC 4563; for MIC Streptococcus agalactiae (GC 4564): strain GC 4564; for MIC Streptococcus pneumoniae (GC 4565): strain GC 4565
Procedure, shortened: as §1

MIC Enterococcus faecalis (ATCC 29212) ([1]; inoculum 5×10^5 CFU/mL): 4 µg/mL (≈ 2.71 µM)
MIC Enterococcus faecalis (GC 2242) ([1]; inoculum 5×10^5 CFU/mL): 4 µg/mL (≈ 2.71 µM)
MIC Enterococcus faecium (GC 2243) ([1]; inoculum 5×10^5 CFU/mL): 4 µg/mL (≈ 2.71 µM)
MIC Enterococcus faecalis (GC 2691) ([1]; inoculum 5×10^5 CFU/mL): 4 µg/mL (≈ 2.71 µM)
MIC Enterococcus faecalis (GC 3059) ([1]; inoculum 5×10^5 CFU/mL): 4 µg/mL (≈ 2.71 µM)
MIC Enterococcus faecalis (GC 4552) ([1]; inoculum 5×10^5 CFU/mL): 4 µg/mL (≈ 2.71 µM)
MIC Enterococcus faecalis (GC 4553) ([1]; inoculum 5×10^5 CFU/mL): 4 µg/mL (≈ 2.71 µM)
MIC Enterococcus faecalis (GC 4554) ([1]; inoculum 5×10^5 CFU/mL): 2 µg/mL (≈ 1.36 µM)
MIC Enterococcus faecium (GC 4556) ([1]; inoculum 5×10^5 CFU/mL): 4 µg/mL (≈ 2.71 µM)
MIC Enterococcus faecium (GC 4557) ([1]; inoculum 5×10^5 CFU/mL): 4 µg/mL (≈ 2.71 µM)
MIC Enterococcus avium (GC 4558) ([1]; inoculum 5×10^5 CFU/mL): 4 µg/mL (≈ 2.71 µM)
MIC Enterococcus faecalis (GC 6189) ([1]; inoculum 5×10^5 CFU/mL): 4 µg/mL (≈ 2.71 µM)
MIC Enterococcus faecalis (ATCC 29212) [1]: 4 µg/mL (≈ 2.71 µM)
MIC Enterococcus faecalis (GC 2242) [1]: 4 µg/mL (≈ 2.71 µM)
MIC Enterococcus faecium (GC 2243) [1]: 4 µg/mL (≈ 2.71 µM)
MIC Enterococcus faecalis (GC 2691) [1]: 4 µg/mL (≈ 2.71 µM)
MIC Enterococcus faecalis (GC 3059) [1]: 4 µg/mL (≈ 2.71 µM)
MIC Enterococcus faecalis (GC 4552) [1]: 4 µg/mL (≈ 2.71 µM)
MIC Enterococcus faecalis (GC 4553) [1]: 4 µg/mL (≈ 2.71 µM)
MIC Enterococcus faecalis (GC 4554) [1]: 2 µg/mL (≈ 1.36 µM)
MIC Enterococcus faecium (GC 4556) [1]: 4 µg/mL (≈ 2.71 µM)
MIC Enterococcus faecium (GC 4557) [1]: 4 µg/mL (≈ 2.71 µM)
MIC Enterococcus avium (GC 4558) [1]: 4 µg/mL (≈ 2.71 µM)
MIC Enterococcus faecalis (GC 6189) [1]: 4 µg/mL (≈ 2.71 µM)
MIC Escherichia coli (ATCC 25922) ([2]; strain ATCC 25922, 18 hours at 35° C.): >64 µg/mL
MIC Escherichia coli (GC 4559) ([2]; strain GC 4559, 18 hours at 35° C.): >64 µg/mL
MIC Escherichia coli (GC 4560) ([2]; strain GC 4560, 18 hours at 35° C.): 4 µg/mL (≈ 2.71 µM)
MIC Staphylococcus aureus (GC 1131) ([3]; inoculum 5×10^5 CFU/mL): 4 µg/mL (≈ 2.71 µM)
MIC Staphylococcus aureus (ATCC 29213) ([3]; strain ATCC 29213): 4 µg/mL (≈ 2.71 µM)
MIC Staphylococcus aureus (GC 1131) [3]: 4 µg/mL (≈ 2.71 µM)
MIC Staphylococcus aureus (GC 3051) ([3]; strain GC 3051): 4 µg/mL (≈ 2.71 µM)
MIC Staphylococcus aureus (GC 3053) ([3]; strain GC 3053): 1 µg/mL (≈ 0.678 µM)
MIC Staphylococcus aureus (GC 4541) ([3]; strain GC 4541): 2 µg/mL (≈ 1.36 µM)
MIC Staphylococcus aureus (GC 4542) ([3]; strain GC 4542): 4 µg/mL (≈ 2.71 µM)
MIC Staphylococcus aureus-SMITH (GC 4543) ([3]; strain GC 4543): 4 µg/mL (≈ 2.71 µM)
MIC Staphylococcus aureus (GC 4544) ([3]; strain GC 4544): 2 µg/mL (≈ 1.36 µM)
MIC Staphylococcus aureus (GC 4545) ([3]; strain GC 4545): 4 µg/mL (≈ 2.71 µM)
MIC Coagulase Negative Staphylococcus (GC 4547) ([3]; strain GC 4547): 4 µg/mL (≈ 2.71 µM)
MIC Coagulase Negative Staphylococcus (GC 4548) ([3]; strain GC 4548): 1 µg/mL (≈ 0.678 µM)
MIC Coagulase Negative Staphylococcus (GC 4549) ([3]; strain GC 4549): 2 µg/mL (≈ 1.36 µM)
MIC Coagulase Negative Staphylococcus (GC 4551) ([3]; strain GC 4551): 1 µg/mL (≈ 0.678 µM)
MIC Coagulase Negative Staphylococcus (GC 6257) ([3]; strain GC 6257): 1 µg/mL (≈ 0.678 µM)
MIC Streptococcus pneumoniae (ATCC 6301) ([4]; inoculum 5×10^5 CFU/mL): <0.06 µg/mL
MIC Streptococcus pneumoniae (GC 1894) ([4]; inoculum 5×10^5 CFU/mL): <0.06 µg/mL
MIC Streptococcus pyogenes (GC 4563) ([4]; inoculum 5×10^5 CFU/mL): <0.06 µg/mL
MIC Streptococcus agalactiae (GC 4564) ([4]; inoculum 5×10^5 CFU/mL): <0.06 µg/mL
MIC Streptococcus pneumoniae (GC 4565) ([4]; inoculum 5×10^5 CFU/mL): <0.06 µg/mL
MIC Streptococcus pneumoniae (ATCC 6301) [4]: <0.06 µg/mL
MIC Streptococcus pneumoniae (GC 1894) [4]: <0.06 µg/mL
MIC Streptococcus pyogenes (GC 4563) [4]: <0.06 µg/mL
MIC Streptococcus agalactiae (GC 4564) [4]: <0.06 µg/mL
MIC Streptococcus pneumoniae (GC 4565) [4]: <0.06 µg/mL
SMILES: CC(c1ccccc1)C1NC(=O)CNC(=O)C(CO)NC(=O)C(C(O)C2CNC(=N)N2C2OC(CO)C(O)C(O)C2O)NC(=O)C(C(O)C2CNC(=N)N2)NC(=O)C(Cc2ccc(OC3OC(CO)C(OC4OC5COC(c6cccc(Oc7ccccc7)c6)OC5C(O)C4O)C(O)C3O)cc2)NC1=O (centres unmarked) [Example 170]
MIC Staphylococcus haemolyticus (GC 4546) ([3]; strain GC 4546): 8 µg/mL (≈ 5.42 µM)

— patent US6914045B2, “Glycopeptide antibiotics” (Wyeth Holdings Corporation, priority 2001, dated 2005)
